Experimental data from patent US20260041620A1, “NOVEL AMINO ACID BASED SALTS, COMPOSITIONS AND METHODS FOR TREATING SKIN AND IMPROVING SKIN REJUVENATION AND LONGEVITY” (Sytheon Ltd, priority 2023, published 2026).

Key:
COX-2 = molecular target: T1, COX-2 (Homo sapiens, UniProt P35354)
T1 sequence (P35354 18-604): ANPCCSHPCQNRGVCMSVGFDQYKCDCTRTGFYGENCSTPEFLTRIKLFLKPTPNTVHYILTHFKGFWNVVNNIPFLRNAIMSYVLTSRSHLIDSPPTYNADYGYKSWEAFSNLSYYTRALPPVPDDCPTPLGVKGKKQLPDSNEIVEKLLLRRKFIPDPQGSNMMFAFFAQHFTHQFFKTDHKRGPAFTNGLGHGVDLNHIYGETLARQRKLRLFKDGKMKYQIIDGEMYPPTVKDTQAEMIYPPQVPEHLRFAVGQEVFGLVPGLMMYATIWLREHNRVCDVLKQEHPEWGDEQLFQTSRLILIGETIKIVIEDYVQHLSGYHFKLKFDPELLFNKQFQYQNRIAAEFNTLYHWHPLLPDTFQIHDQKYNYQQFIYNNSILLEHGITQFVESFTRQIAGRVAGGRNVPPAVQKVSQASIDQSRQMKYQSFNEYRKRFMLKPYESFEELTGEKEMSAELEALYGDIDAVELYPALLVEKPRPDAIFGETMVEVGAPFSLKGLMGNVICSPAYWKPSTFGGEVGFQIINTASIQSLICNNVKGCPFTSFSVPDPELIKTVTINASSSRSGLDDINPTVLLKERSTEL
Experimental: A 0.1 gram sample of each test material was dissolved in 1 mL propanediol make a stock solution, each of which was subject to 1 to 2 serial dilutions using buffer for use in determining the IC50 Testing and analysis was performed in accordance with the protocol of the COX-2 Kt (Cayman Catalog #701080) (Cayman catalog #62160).

[1] = system: EpiDermFT (Mattek full thickness) dermal substitutes; details: versus control
Experimental: The experiments were performed using EpiDermFT (Mattek full thickness) dermal substitutes. Sequencing data was generated by Azenta Life Sciences (HiSeq 2×150 bp) and analyses performed using raw FastQ files provided by Azenta.

Prolidase (PEPD) = experiment: Prolidase Assay (ELISA); type: cell-based; details: for Prolidase: untreated 74 ± 3
Experimental: A series of standards was prepared and 50 μl aliquots of the standards and the test samples identified in Table 6 were added to wells of a prolidase ELISA plate, followed by the addition of 100 μl […] conjugated anti-prolidase antibody. The plate was then incubated at 37° C. for 1 hour, Following incubation, the ELISA plate was washed and 100 μl of substrate solution was added to each well and the well-plate incubated for 10-15 minutes at room temperature to allow the color generation reaction to occur. At the end of the color generation reaction, 50 μl of stop solution (1 N sulfuric acid) was added to each well and the plates read at 460 nm using a plate reader.
(§1) To quantify the amount of each substance present, a standard curve was generated using known concentrations of each substance. A regression analysis was performed to establish the line that best fit those data points. Absorbance values for the test materials and untreated samples were used to estimate the amount of each substance present in each sample. Treatment means were compared using ANOVA, with an […] per treatment. Statistical significance was set at p≤0.05.

Type I Collagen = Type I Collagen Assay (ELISA, fibroblast culture medium); type: cell-based, human; details: for Type I Collagen C-Peptide: 48 hours, untreated 1255 ± 83
Experimental: (§2) In the study, human neonatal fibroblasts were seeded into the individual wells of a 48-well plate in 0.25 ml of Fibroblasts Growth Media (FGM) and incubated overnight at 37±2° C. and a 5±1% CO2 atmosphere. On the following day the media was removed via aspiration to eliminate non-adherent cells and replaced with 0.5 ml of fresh FGM. The cells were grown until confluent, with a media change every 48 to 72 hours. Upon reaching confluency the cells were treated for 24 hours with Dulbecco's Modified Eagle's medium (DMED) supplemented with 1.5% Fetal Bovine Serum (FBS) to wash out any effects from the growth factors included in the normal culture media. After this 24-hour wash out period the cells were treated with the test materials at the specified concentrations dissolved in FGM with 1.5% FBS. Sodium ascorbate (10 ug/ml) was used as a positive control. Untreated cells (negative controls) only received DMEM with […], The cells were incubated for 48 hours and at the end of the incubation period, cell culture medium was collected and either stored frozen (−75 C) or assayed immediately. Materials were tested in triplicate.
A series of type I collagen peptide standards was prepared ranging from 0 ng/ml to 640 ng/ml. An ELISA microplate was prepared by removing any unneeded strips from the plate frame followed by the addition of 100 μl of peroxidase labelled anti-procollagen type I-C peptide antibody to each well used in the assay. A 20 μl sample of each of the collected tissue culture media or a standard was then added to appropriate wells and the microplate covered and allowed to incubate for 3±0.25 hours at 37 C. Following incubation, the wells were aspirated and washed three times with 400 μl of wash buffer. After the last wash was remove 100 μl of peroxidase substrate solution (hydrogen peroxide+tetramethylbenzidine as a chromogen) was added to each well and the plate incubated for 15±4 minutes at room temperature. Following this incubation, 100 μl of stop solution (1 N sulfuric acid) was added to each well and the plate read using a microplate reader at 450 nm.
as §1

Type IV Collagen = Type IV Collagen Assay (ELISA, fibroblast culture medium); type: cell-based, human; details: for Type IV Collagen C-Peptide: 48 hours, untreated 7.76 ± 0.92
Experimental: as §2
A series of type IV collagen peptide standards was prepared ranging from 0 ng/ml to 640 ng/ml. 100 μl of each standard or of each of the collected tissue culture media were added to the wells of type IV collagen ELISA plates. The plates were then incubated at 37° C. for 1 hour. After incubation, the ELISA plates were then washed twice with wash buffer, followed by the addition of 100 μl of detection antibody solution. The ELISA plates were then incubated for 1 hour at 37° C. Following incubation, the ELISA plates were washed with wash solution followed by the addition of 100 μl HEP conjugate solution and incubated at 37° C. for 30 minutes. Following the latter incubation, the ELISA plates were again washed and 100 μl of the substrate solution was added to each well and the well plates incubated for 10-30 minutes at room temperature to allow the color generation reaction to occur. At the end of the color generation reaction 100 μl of stop solution (1 N sulfuric acid) was added to each well and the plates read at 460 nm using a plate reader.
as §1

[2] = concentrations as high as 100 μg/ml

Row | SMILES | COX-2 IC50 (COX-2) | expression of FABP3 [1] | expression of late differentiation marker gene FLG [1] | expression of late differentiation marker gene IVL [1] | expression of late differentiation marker gene LOR [1] | expression of late differentiation marker gene SPINK5 [1] | expression of late differentiation marker gene TGM1 [1] | Prolidase (Prolidase (PEPD); 10 μg/ml) | Prolidase (Prolidase (PEPD); 20 μg/ml) | Prolidase (Prolidase (PEPD); 30 μg/ml) | Prolidase (Prolidase (PEPD); 60 μg/ml) | Type I Collagen C-Peptide (Type I Collagen; 10 μg/ml) | Type I Collagen C-Peptide (Type I Collagen; 30 μg/ml) | Type IV Collagen C-Peptide (Type IV Collagen; 10 μg/ml) | Type IV Collagen C-Peptide (Type IV Collagen; 30 μg/ml) | further results
1 | CCCC(=O)NCCCCC(NC(=O)CCC)C(=O)[O-].CCCC(=O)NCCCCC(NC(=O)CCC)C(=O)[O-].[Ca+2] (stereo not shown) [Ca di-(di-n-butyryl lysinate), calcium di-(di-n-butyryl lysinate)] | 111.0 µg/mL | repressed | increased expression | increased expression | increased expression | increased expression | increased expression |  |  |  |  |  |  |  |  | activity of late cornified envelop (LCE2D) [1]: strongly increased; activity of late cornified envelope (LCE3A) [1]: strongly increased
2 | CCCC(=O)[O-].[Na+] [Sodium butyrate, reference compound] |  |  |  |  |  |  |  | 54 ± 3 ng/mL | 47 ± 6 ng/mL | 37 ± 5 ng/mL | 33 ± 5 ng/mL | 1445 ± 168 ng/mL | 1262 ± 95 ng/mL | 9.29 ± 0.70 ng/mL | 7.61 ± 0.70 ng/mL | decrease of prolidase vs control (Prolidase (PEPD); 60 μg/ml): 50%; Type I Collagen C-Peptide (Type I Collagen; 60 μg/ml): 1196 ± 175 ng/mL; Type I Collagen C-Peptide (Type I Collagen; 100 μg/ml): 1277 ± 216 ng/mL; Collagen I boosting activity (Type I Collagen; [2]): didn't show any; Type IV Collagen C-Peptide (Type IV Collagen; 60 μg/ml): 11.88 ± 1.37 ng/mL; Type IV Collagen C-Peptide (Type IV Collagen; 100 μg/ml): 12.80 ± 1.83 ng/mL; Collagen IV boosting activity (Type IV Collagen; [2]): didn't show any
3 | CCCC(=O)NCCCC[C@H](NC(=O)CCC)C(=O)[O-].CCCC(=O)NCCCC[C@H](NC(=O)CCC)C(=O)[O-].[Zn+2] [Zn di-(di-n-butyryl lysinate), Zinc di-(di-n-butyryl lysinate)] | 82.3 µg/mL | repressed | increased expression | increased expression | increased expression | increased expression | increased expression | 66 ± 4 ng/mL | 104 ± 5 ng/mL | 115 ± 8 ng/mL | 145 ± 5 ng/mL | 1328 ± 48 ng/mL | 1958 ± 125 ng/mL | 13.41 ± 1.40 ng/mL | 26.98 ± 1.37 ng/mL | increase of prolidase vs control (Prolidase (PEPD); 60 μg/ml): 50%; Type I Collagen C-Peptide (Type I Collagen; 20 μg/ml): 1541 ± 94 ng/mL; boost of Collagen I vs control (Type I Collagen; 30 μg/ml): ~50%; activity of S100 calcium binding protein P (S100P) [1]: strongly increased; activity of late cornified envelope 3D (LCE3D) [1]: strongly increased; activity of late cornified envelope 3E (LCE3E) [1]: strongly increased; activity of small protein reach repeat (SPRR28) [1]: strongly increased; expression of early differentiation marker gene DSC1 [1]: increasing the expression; expression of early differentiation marker gene KRT1 [1]: increasing the expression; expression of early differentiation marker gene KRT10 [1]: increasing the expression; boosting of Collagen IV versus control (Type IV Collagen; 20 μg/ml): ~250%; Type IV Collagen C-Peptide (Type IV Collagen; 20 μg/ml): 21.19 ± 1.47 ng/mL; boosting of Collagen IV versus control (Type IV Collagen; 30 μg/ml): ~320%
